# Measured values: patent publication US5270310A, “N-aminoalkyl amide inhibitors of protein kinase C” (Sphinx Pharmaceuticals Corporation, priority 1991, dated 1993)
# Tests used:
# [1] = system: MCF-7 human breast tumor cell line; assay: Human Tumor Cell Growth Inhibition, MCF-7; format: cell-based; conditions: Homo sapiens, MCF7; 3H-thymidine incorporation; value outside parentheses (not salt)
# Experimental: MCF-7 a human breast tumor cell line and MCF-7/ADR an adriamycin resistant line of MCF-7 cells were obtained from the National Cancer Institute, Frederick, Md. […] Human tumor cells are trypsinized (0.05% trypsin, GIBCO), counted with a hemacytometer and seeded at a concentration of 10,000 cells/well in a 96 well microtiter plate. After allowing cells to attach to the surface overnight, the culture medium is aspirated and replaced with 100 μl of fresh medium. Test agents are diluted to determine dose response at 2× final concentration and added in quadruplicate at 100 μl/well to bring the total volume of each well to 200 μl. The microtiter plate is then incubated at 37° C. 5% CO2 overnight (18-24 hrs) before ^3 H-thymidine is added at a concentration of 0.5 μCi/well in 50 μl culture medium. The plate is incubated again for 4 hrs under the same conditions as above. Supernatant is then aspirated and 50 μl trypsin (0.05%, GIBCO) is added to each well. Cells are checked microscopically to determine detachment from surfaces, and plates are then harvested with a cell harvester (PHD, Cambridge Technology, Inc.) Filter papers corresponding to wells are placed in scintillation vials and counted to determine the amount of ^3 H-thymidine incorporated by the cells. Test agent response is compared to a positive control of cell wells with culture media only to determine the IC50. IC50 is the concentration of test compound required to inhibit fifty per cent of the incorporation of ^3 H-thymidine into proliferating cells not exposed to test agent. Uptake of ^3 H-thymidine is a standard test for measuring the metabolism of cells. Cells which are actively proliferating take up ^3 H-thymidine, whereas cells that are not proliferating take up ^3 H-thymidine at much slower rates or not at all. Test agents that inhibit the uptake of ^3 H-thymidine thus slow the growth of cells.
# [2] = system: MCF-7/ADR adriamycin resistant line of MCF-7 cells; assay: Human Tumor Cell Growth Inhibition, MCF-7/ADR; format: cell-based; conditions: NCI/ADR-RES, 3H-thymidine incorporation, value without parentheses (not salt)
# Excerpt: MCF-7 a human breast tumor cell line and MCF-7/ADR an adriamycin resistant line of MCF-7 cells were obtained from the National Cancer Institute, Frederick, Md. CEM cells (ATCC accession number CCL 119) were obtained from the American Type Culture Collection, Rockville, Md. Human tumor cells are trypsinized (0.05% trypsin, GIBCO), counted with a hemacytometer and seeded at a concentration of 10,000 cells/well in a 96 well microtiter plate. After allowing cells to attach to the surface overnight, the culture medium is aspirated and replaced with 100 μl of fresh medium. Test agents are diluted to determine dose response at 2× final concentration and added in quadruplicate at 100 μl/well to bring the total volume of each well to 200 μl. The microtiter plate is then incubated at 37° C. 5% CO2 overnight (18-24 hrs) before ^3 H-thymidine is added at a concentration of 0.5 μCi/well in 50 μl culture medium. The plate is incubated again for 4 hrs under the same conditions as above. Supernatant is then aspirated and 50 μl trypsin (0.05%, GIBCO) is added to each well. Cells are checked microscopically to determine detachment from surfaces, and plates are then harvested with a cell harvester (PHD, Cambridge Technology, Inc.) Filter papers corresponding to wells are placed in scintillation vials and counted to determine the amount of ^3 H-thymidine incorporated by the cells. […]
# protein kinase C (PKC) = assay: Protein Kinase C Inhibition; format: biochemical, rat
# Experimental: The protein kinase C (PKC) assay is designed to duplicate the in vivo conditions required for protein kinase C function. Therefore, pH, salt and cofactor concentrations are similar to physiologic levels. Histone H1 (lysine rich) is used in the assay as the phosphorylation acceptor protein because it is readily available and serves as a good substrate for protein kinase C. The enzyme is prepared from rat brain and is purified to apparent homogeneity as determined by a single band on silver stained SDS-polyacrylamide. Studies on the mechanism of regulation of protein kinase C by phospholipids, DAG and Ca^+2 have been hampered by the physical properties of the lipid cofactors. In the screening assay, phosphatidylserine (PS) and DAG are co-sonicated to form unilamellar and multilamellar vesicles. The concentration of lipids in the assay are suboptimal to maximize the detection potential of the assay for inhibitors. […] The assay is started with the addition of enzyme and stopped after 10 min by the addition of 25% trichloroacetic acid (TCA) and 1.0 mg/ml bovine serum albumin (BSA). The radioactive histone product is retained and washed on glass fiber filters that allow the unreacted ^32 P-ATP to pass through. The amount of phosphorylation is determined by the radioactivity measured in a scintillation counter. Controls are included in every assay to measure background activity in the absence of enzyme, activity in the absence of lipids and the maximum enzyme activity with saturating levels of the activator lipids.
# Both the free base and the HCl salt were tested.
# [3] = system: PMA-stimulated neutrophils; assay: Neutrophil Superoxide Anion (O2^-) Release Assay; format: cell-based, human; conditions: Homo sapiens, Neutrophil; PMA-stimulated; value outside parentheses (not salt); read-out: Neutrophil Superoxide Release IC50
# Experimental: Neutrophils are isolated form whole blood collected from human volunteers. All reagent materials are obtained from Sigma Chemical Company with the exception of isotonic saline (Travenol Laboratories, Inc., Deerfield, Ill.) and lymphocyte separation medium (Organon Teknika, Durham, N.C.).
# Whole blood is drawn and mixed with sodium heparin (final conc. 10 units/ml) to prevent clotting. An equal volume of dextran (3.0%) in isotonic saline is added, mixed, and allowed to settle for 30 min to bind red blood cells (RBC). Supernatant is removed, underlayered with lymphocyte separation medium and centrifuged for 40 min at 400 xg in a centrifuge (Beckman GPR, Norcross, Ga). The pellet is alternately resuspended in 0.2% and 1.6% NaCl to lyse RBCs before washing with Hank's Balanced Salt Solution (HBSS). The washed pellet is resuspended in 10 mL HBSS and placed on ice before counting on a hemacytometer.
# The neutrophil cell concentration is adjusted to 2×10^6 cells/ml with HBSS before adding 0.8 mL cells to 12×75 mm polypropylene test tubes (Fisher Scientific). Test agents are diluted to determine dose response and added at 10× final concentration at a volume of 0.1 mL/tube in duplicate. Then 10× concentrations of cytochrome C (15 mg/ml) with catalase (3000 units/ml) either alone or containing 25 ng/ml phorbol 12-myristate 13-acetate (PMA) are added at a volume of 0.1 mL/tube and incubated at 37° C. for 30 min before stopping the reaction by placing tubes on ice. Tubes are then centrifuged at 900 xg for 10 min, 0.5 mL supernatant is removed and added to 0.5 mL H2 O in a microcuvette. Optical density (OD) of cytochrome c is read in a spectrophotometer (Shimadzu) at 550 nm. The ΔOD of cytochrome c is obtained between PMA-stimulated and non-stimulated tubes, and the dose responses of the test agents are compared to the positive controls (which contain HBSS in place of test agents). PMA stimulates O2^- production which reduces cytochrome c. Reducing cytochrome c increases its absorbance, and the change in OD of cytochrome c is proportional to the amount of O2^- produced by PMA stimulation. Inhibition of the O2^- burst by test compounds of the invention is seen as a reduction in the change in optical density. Inhibition is expressed as IC50 μM and is the amount of test compound that will inhibit fifty percent of the PMA-stimulated respiratory outburst, i.e. O2^- production.
# [4] = molecular target: T1, protein kinase (PKA), catalytic subunit (Homo sapiens, UniProt P17612); assay: cAMP-Dependent Protein Kinase (PKA) Assay; format: biochemical; conditions: free base
# T1 construct: purchased Sigma Chemical Company, St. Louis, Mo
# Experimental: Compound found to be inhibitors of protein kinase C are tested for inhibitory activity against protein kinase (PKA). This enzyme, like protein kinase C, plays an important role in cell-cell communication and is activated by a second messenger, cAMP. Secondary screening against PKA is useful for ascertaining the selectivity of the compounds of the invention. The catalytic subunit of PKA (Sigma Chemical Company, St. Louis, Mo.) is mixed with buffer before addition of the inhibitor in dimethylsulfoxide (DMSO). The assay is started by the addition of 32P-ATP and the reaction is allowed to proceed for 10 min before stopping with 25% trichloroacetic acid (TCA) and 1.0 mg/ml bovine serum albumin (BSA). The phosphorylated protein is isolated by filtration and the radioactivity is counted in a beta scintillation counter.
# [5] = system: NHEK cells (proliferating keratinocytes); assay: Human Keratinocyte Inhibition; format: cell-based; conditions: 3H-thymidine incorporation, value outside parentheses (not salt), read-out: NHEK IC50
# Experimental: Proliferating keratinocytes (NHEK cells purchased from Clonetics, Inc., San Diego, Calif.) in second passage were grown in Keratinocyte Growth Medium (KGM) (Clonetics, Inc.) Cells are trypsinized (0.025% trypsin, Clonetics), counted with a hemacytometer (Scientific Products), and seeded at a concentration of 2,500 cells/well in a 96 well microtiter plate. After allowing cells to attach to the surface overnight, the culture medium is aspirated and replaced with 100 μl of fresh KGM. […] IC50 is the concentration of test compound required to inhibit fifty percent of the incorporation of ^3 H-thymidine into proliferating cells not exposed to test agent.
IC50 [1] [µM],IC50 [2] [µM],IC50 (protein kinase C (PKC); HCl salt) [µM],IC50 (protein kinase C (PKC); free base) [µM],IC50 [3] [µM],IC50 [4] [µM],Structure (SMILES),IC50 [5] [µM]
4.1,2.6,66,130,1.8,> 217,"CCCCCCCCCCCCCCCC(=O)NCCCN1CCCCC1C (stereo not drawn) [Compound 11, 2-Methyl-l-[3-(N-hexadecanoyl)aminopropyl]piperidine]",–
19.3,> 25,–,22,–,131,"CCCCCCCCCCCCCCCC(=O)N(C)CCC[N+]1(C)CCOCC1 [Compound 16, 4-[N-hexadecanoyl-N-methyl-4-(3-aminopropyl)]-4-methylmorpholimium iodide]",1.4
